# According to article PMC4114533, “Synthesis, Anti-tubulin and Antiproliferative SAR of Steroidomimetic Dihydroisoquinolinones” (Chemmedchem, 2014):
# Tested on: DU-145 human prostate cancer cells
# Assay: Antiproliferative assay (WST-1, 96 h), DU-145
# Assay type: cell-based
# Settings: for GI50: Homo sapiens, DU-145 cells, 96 h, WST-1, mean of three determinations; for antiproliferative activity (in words): in vitro antiproliferative activity, result in words
# Protocol: Cell lines: DU-145 (brain metastasis carcinoma of the prostate) and MDA MB-231 (metastatic pleural effusion of breast adenocarcinoma) established human cell lines were obtained from ATCC Global Bioresource Center. Cells were maintained in a 5 % CO2 humidified atmosphere at 37 °C in RPMI-1640 medium, supplemented with 10 % fetal bovine serum, penicillin, (100 U mL^−1), and streptomycin (0.1 mg mL^−1). The effect of drugs on tubule formation was assessed using an angiogenesis kit (TCS-Cellworks).
# Antiproliferative assays: DU-145 and MDA MB-231 cells were seeded into 96-well microtitre plates (5000 cells per well) and treated with compound (10^−9–10^−4 M) or with vehicle control. At 96 h post-treatment, live cell counts were determined by WST-1 cell proliferation assay (Roche, Penzberg, Germany), as per the manufacturer’s instructions. Viability results were expressed as a percentage of mean control values resulting in the calculation of the 50 % growth inhibition (GI50). All experiments were performed in triplicate.
GI50 [µM],Structure (SMILES),antiproliferative activity (in words)
> 100,"COc1ccc(C(=O)N2CCc3cc(O)c(OC)cc3C2=O)cc1 [16 d, 6-Hydroxy-2-(4-methoxybenzoyl)-7-methoxy-3,4-dihydroisoquinolin-1(2H)-one]",inactive
> 100,"COc1cc2c(cc1O)CCN(Cc1cc(OC)c(OC)c(OC)c1)C2=O [8 e, 6-Hydroxy-7-methoxy-2-(3,4,5-trimethoxybenzyl)-3,4-dihydroisoquinolin-1(2H)-one]",
> 100,"COc1ccccc1CN1CCc2cc(OS(N)(=O)=O)c(OC)cc2C1=O [9 a, 7-Methoxy-2-(2-methoxybenzyl)-6-sulfamoyloxy-3,4-dihydroisoquinolin-1(2H)-one]",
9,"COc1cc(OC)cc(C(=O)N2CCc3cc(OS(N)(=O)=O)c(OC)cc3C2)c1 [19 b, 2-(3,5-Dimethoxybenzoyl)-7-methoxy-6-sulfamoyloxy-1,2,3,4-tetrahydroisoquinoline]",
6.4,"COc1cc(OC)cc(C(=O)N2CCc3cc(O)c(OC)cc3C2)c1 [18 b, 2-(3,5-Dimethoxybenzoyl)-6-hydroxy-7-methoxy-1,2,3,4-tetrahydroisoquinoline]",
> 100,"COc1cc(CN2CCc3cc(O)c(OC)cc3C2=O)cc(OC)c1 [8 d, 6-Hydroxy-7-methoxy-2-(3,5-dimethoxybenzyl)-3,4-dihydroisoquinolin-1(2H)-one]",
> 100,"COc1cc(CN2CCc3cc(OCc4ccccc4)c(OC)cc3C2=O)cc(OC)c1 [7 d, 6-Benzyloxy-7-methoxy-2-(3,5-dimethoxybenzyl)-3,4-dihydroisoquinolin-1(2H)-one]",
> 100,"COc1cc(OC)cc(C(=O)N2CCc3cc(OCc4ccccc4)c(OC)cc3C2=O)c1 [15 f, 6-Benzyloxy-2-(3,5-dimethoxybenzoyl)-7-methoxy-3,4-dihydroisoquinolin-1(2H)-one]",
> 100,"COc1cc2c(cc1OCc1ccccc1)CCN(Cc1cc(OC)c(OC)c(OC)c1)C2=O [7 e, 6-Benzyloxy-7-methoxy-2-(3,4,5-trimethoxybenzyl)-3,4-dihydroisoquinolin-1(2H)-one]",
> 100,"COc1ccc(C(=O)N2CCc3cc(OCc4ccccc4)c(OC)cc3C2=O)cc1OC [15 e, 6-Benzyloxy-2-(3,4-dimethoxybenzoyl)-7-methoxy-3,4-dihydroisoquinolin-1(2H)-one]",
> 100,"COc1cc2c(cc1O)CCN(C(=O)c1ccc(OC)c(OC)c1)C2 [18 a, 2-(3,4-Dimethoxybenzoyl)-6-hydroxy-7-methoxy-1,2,3,4-tetrahydroisoquinoline]",completely inactive
> 100,"COc1cc2c(cc1O)CCN(Cc1ccccc1OC)C2=O [8 a, 6-Hydroxy-7-methoxy-2-(2-methoxybenzyl)-3,4-dihydroisoquinolin-1(2H)-one]",
26.7,"COc1ccc(C(=O)N2CCc3cc(OCc4ccccc4)c(OC)cc3C2)cc1OC [14 e, 6-Benzyloxy-2-(3,4-dimethoxybenzoyl)-7-methoxy-1,2,3,4-tetra-hydroisoquinoline]",
> 100,"COc1cc2c(cc1OS(N)(=O)=O)CCN(Cc1cc(OC)c(OC)c(OC)c1)C2=O [9 e, 7-Methoxy-6-sulfamoyloxy-2-(3,4,5-trimethoxybenzyl)-3,4-dihydroisoquinolin-1(2H)-one]",
> 100,"COc1ccc(CN2CCc3cc(OS(N)(=O)=O)c(OC)cc3C2=O)cc1 [9 c, 7-Methoxy-2-(4-methoxybenzyl)-6-sulfamoyloxy-3,4-dihydroisoquinolin-1(2H)-one]",
46.8,"COc1cc(OC)cc(C(=O)N2CCc3cc(OCc4ccccc4)c(OC)cc3C2)c1 [14 f, 6-Benzyloxy-2-(3,5-dimethoxybenzoyl)-7-methoxy-1,2,3,4-tetra-hydroisoquinoline]",
> 100,"COc1ccc(C(=O)N2CCc3cc(OCc4ccccc4)c(OC)cc3C2=O)cc1 [15 d, 6-Benzyloxy-2-(4-methoxybenzoyl)-7-methoxy-3,4-dihydroisoquinolin-1(2H)-one]",
